In patent US20260191968A1, “PROTAC DEGRADERS OF MLLT1 AND/OR MLLT3” (DARK BLUE THERAPEUTICS LTD, priority 2024, published 2026):

Target: T1, MLLT1 (Homo sapiens, UniProt Q03111)
T1 construct: host or cells: MV4-11
T1 sequence (Q03111 1-559): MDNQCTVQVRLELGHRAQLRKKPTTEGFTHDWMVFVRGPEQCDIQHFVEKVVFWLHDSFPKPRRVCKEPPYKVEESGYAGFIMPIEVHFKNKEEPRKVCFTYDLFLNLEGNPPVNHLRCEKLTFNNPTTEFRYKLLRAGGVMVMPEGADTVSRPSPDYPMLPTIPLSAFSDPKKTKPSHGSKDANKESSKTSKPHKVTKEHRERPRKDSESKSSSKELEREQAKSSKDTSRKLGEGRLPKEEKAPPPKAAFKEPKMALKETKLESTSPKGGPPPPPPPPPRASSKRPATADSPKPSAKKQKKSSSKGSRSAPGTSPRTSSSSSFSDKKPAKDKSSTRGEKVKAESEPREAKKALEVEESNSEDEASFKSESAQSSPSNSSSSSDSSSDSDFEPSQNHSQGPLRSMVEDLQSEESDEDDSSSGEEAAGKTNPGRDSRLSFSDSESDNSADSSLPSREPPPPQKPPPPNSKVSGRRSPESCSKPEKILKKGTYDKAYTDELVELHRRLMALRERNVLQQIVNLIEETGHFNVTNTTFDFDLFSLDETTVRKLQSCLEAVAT
Test: MLLT1 degradation assay in MV4-11 cells (JESS chemiluminescent detection), three concentrations, 24 h
Assay type: cell-based
Settings: with respect to DMSO control
Method: MLLT1 degradation efficacy of compounds were tested in an automated chemiluminescent detection system (JESS, Cat #004-650). […] 10 mM DMSO stocks were prepared, and cells were treated with three concentrations of test compounds viz. 1000, 100 and 10 nM at a final DMSO concentration of 0.1% and incubated for 24 h at 37° C., 5% CO2. […] Post run, data were analysed using “Compass for SW” software for chemiluminescent detection. The peak area for each band was used for the calculation of MLLT1 degradation with respect to DMSO control. Data is shown as “MLLT1% degradation”.

Row | SMILES | MLLT1% Degradation @ 0.01 μM | MLLT1% Degradation @ 0.1 μM | MLLT1% Degradation @ 1 μM
1 | CCN1CCC[C@@H]1c1cc2cnc(NC(=O)c3ccc(CCCCC#Cc4cccc5c4CN(C4CCC(=O)NC4=O)C5=O)nc3)cc2[nH]1 (stereo partly drawn) [Example 74, 6-(6-(2-(2,6-dioxopiperidin-3-yl)-1-oxoisoindolin-4-yl)hex-5-yn-1-yl)-N-(2-((R)-1-ethylpyrrolidin-2-yl)-1H-pyrrolo[3,2-c]pyridin-6-yl) nicotinamide] | B (Category B: 50% ≤ B < 75% degradation) | B (Category B: 50% ≤ B < 75% degradation) | B (Category B: 50% ≤ B < 75% degradation)
2 | CN1CCC[C@@H]1c1cc2cnc(NC(=O)c3cc(F)c(CCCC#Cc4cccc5c4CN(C4CCC(=O)NC4=O)C5=O)c(F)c3)cc2[nH]1 (stereo partly drawn) [Example 84, 4-(5-(2-(2,6-dioxopiperidin-3-yl)-1-oxoisoindolin-4-yl)pent-4-yn-1-yl)-3,5-difluoro-N-(2-((R)-1-methylpyrrolidin-2-yl)-1H-pyrrolo[3,2-c]pyridin-6-yl)benzamide] | B (Category B: 50% ≤ B < 75% degradation) | A (Category A: A ≥ 75% degradation) | A (Category A: A ≥ 75% degradation)
3 | CN1CCC[C@@H]1c1cc2cnc(NC(=O)c3ccc(N4CCC(CN5CCN(c6cccc7c6CN(C6CCC(=O)NC6=O)C7=O)CC5)CC4)cc3)cc2[nH]1 (stereo partly drawn) [Example 92, 4-(4-((4-(2-(2,6-dioxopiperidin-3-yl)-1-oxoisoindolin-4-yl)piperazin-1-yl)methyl)piperidin-1-yl)-N-(2-((R)-1-methylpyrrolidin-2-yl)-1H-pyrrolo[3,2-c]pyridin-6-yl)benzamide] | B (Category B: 50% ≤ B < 75% degradation) | B (Category B: 50% ≤ B < 75% degradation) | B (Category B: 50% ≤ B < 75% degradation)
4 | CN1CCC[C@@H]1c1cc2cnc(NC(=O)c3ccc(CCCC#Cc4cccc(C(=O)N[C@H]5CCC(=O)NC5=O)n4)cc3)cc2[nH]1 [Example 97, N—((S)-2,6-dioxopiperidin-3-yl)-6-(5-(4-((2-((R)-1-methylpyrrolidin-2-yl)-1H-pyrrolo[3,2-c]pyridin-6-yl)carbamoyl)phenyl)pent-1-yn-1-yl)picolinamide] | C (Category C: 25% ≤ C < 50% degradation) | B (Category B: 50% ≤ B < 75% degradation) | B (Category B: 50% ≤ B < 75% degradation)
5 | CN1CCC[C@@H]1c1cc2cnc(NC(=O)c3ccc(CCCC#Cc4cc5c(cc4F)C(=O)N(C4CCC(=O)NC4=O)C5)cc3)cc2[nH]1 (stereo partly drawn) [Example 106, 4-(5-(2-(2,6-dioxopiperidin-3-yl)-6-fluoro-1-oxoisoindolin-5-yl)pent-4-yn-1-yl)-N-(2-((R)-1-methylpyrrolidin-2-yl)-1H-pyrrolo[3,2-c]pyridin-6-yl)benzamide] | B (Category B: 50% ≤ B < 75% degradation) | A (Category A: A ≥ 75% degradation) | A (Category A: A ≥ 75% degradation)
6 | CN1CCC[C@@H]1c1cc2cnc(NC(=O)c3ccc(CCCC#Cc4cccc5c4C(=O)N(C4CCC(=O)NC4=O)C5=O)cc3)cc2[nH]1 (stereo partly drawn) [Example 110, 4-(5-(2-(2,6-dioxopiperidin-3-yl)-1,3-dioxoisoindolin-4-yl)pent-4-yn-1-yl)-N-(2-((R)-1-methylpyrrolidin-2-yl)-1H-pyrrolo[3,2-c]pyridin-6-yl)benzamide] | C (Category C: 25% ≤ C < 50% degradation) | A (Category A: A ≥ 75% degradation) | A (Category A: A ≥ 75% degradation)
7 | CN1CCC[C@@H]1c1cc2cnc(NC(=O)c3ccc(CCCCC#Cc4cc5c(cc4F)C(=O)N(C4CCC(=O)NC4=O)C5)cc3F)cc2[nH]1 (stereo partly drawn) [Example 114, 4-(6-(2-(2,6-dioxopiperidin-3-yl)-6-fluoro-1-oxoisoindolin-5-yl)hex-5-yn-1-yl)-2-fluoro-N-(2-((R)-1-methylpyrrolidin-2-yl)-1H-pyrrolo[3,2-c]pyridin-6-yl)benzamide] | D (Category D: D < 25% degradation) | C (Category C: 25% ≤ C < 50% degradation) | C (Category C: 25% ≤ C < 50% degradation)
8 | COc1nc(N2CCN(CC3CCN(c4cccc5c4CN(C4CCC(=O)NC4=O)C5=O)CC3)CC2)ccc1C(=O)Nc1cc2[nH]c([C@H]3CCCN3C)cc2cn1 (stereo partly drawn) [Example 126, 6-(4-((1-(2-(2,6-dioxopiperidin-3-yl)-1-oxoisoindolin-4-yl)piperidin-4-yl)methyl)piperazin-1-yl)-2-methoxy-N-(2-((R)-1-methylpyrrolidin-2-yl)-1H-pyrrolo[3,2-c]pyridin-6-yl) nicotinamide] | C (Category C: 25% ≤ C < 50% degradation) | C (Category C: 25% ≤ C < 50% degradation) | C (Category C: 25% ≤ C < 50% degradation)
9 | C[C@H]1CN(CC2CCN(c3cccc4c3CN(C3CCC(=O)NC3=O)C4=O)CC2)CCN1c1ccc(C(=O)Nc2cc3[nH]c([C@H]4CCCN4C)cc3cn2)cn1 (stereo partly drawn) [Example 127, 6-((2S)-4-((1-(2-(2,6-dioxopiperidin-3-yl)-1-oxoisoindolin-4-yl)piperidin-4-yl)methyl)-2-methylpiperazin-1-yl)-N-(2-((R)-1-methylpyrrolidin-2-yl)-1H-pyrrolo[3,2-c]pyridin-6-yl)nicotinamide] | B (Category B: 50% ≤ B < 75% degradation) | B (Category B: 50% ≤ B < 75% degradation) | B (Category B: 50% ≤ B < 75% degradation)
10 | CN1CCC[C@@H]1c1cc2cnc(NC(=O)c3ccc(CCCC4CCN(c5cccc6c5C(=O)N(C5CCC(=O)NC5=O)C6=O)CC4)cc3)cc2[nH]1 (stereo partly drawn) [Example 128, 4-(3-(1-(2-(2,6-dioxopiperidin-3-yl)-1,3-dioxoisoindolin-4-yl)piperidin-4-yl)propyl)-N-(2-((R)-1-methylpyrrolidin-2-yl)-1H-pyrrolo[3,2-c]pyridin-6-yl)benzamide] | C (Category C: 25% ≤ C < 50% degradation) | A (Category A: A ≥ 75% degradation) | A (Category A: A ≥ 75% degradation)
11 | CN1CCC[C@@H]1c1cc2cnc(NC(=O)c3ccc(CCCN4CCN(c5cccc6c5C(=O)N(C5CCC(=O)NC5=O)C6=O)CC4)cc3)cc2[nH]1 (stereo partly drawn) [Example 130, 4-(3-(4-(2-(2,6-dioxopiperidin-3-yl)-1,3-dioxoisoindolin-4-yl)piperazin-1-yl)propyl)-N-(2-((R)-1-methylpyrrolidin-2-yl)-1H-pyrrolo[3,2-c]pyridin-6-yl)benzamide] | B (Category B: 50% ≤ B < 75% degradation) | A (Category A: A ≥ 75% degradation) | A (Category A: A ≥ 75% degradation)
12 | CN1CCC[C@@H]1c1cc2cnc(NC(=O)c3ccc(N4CCC(OC5CCN(c6cccc7c6C(=O)N(C6CCC(=O)NC6=O)C7=O)CC5)CC4)cc3)cc2[nH]1 (stereo partly drawn) [Example 136, 4-(4-((1-(2-(2,6-dioxopiperidin-3-yl)-1,3-dioxoisoindolin-4-yl)piperidin-4-yl)oxy)piperidin-1-yl)-N-(2-((R)-1-methylpyrrolidin-2-yl)-1H-pyrrolo[3,2-c]pyridin-6-yl)benzamide] | C (Category C: 25% ≤ C < 50% degradation) | B (Category B: 50% ≤ B < 75% degradation) | B (Category B: 50% ≤ B < 75% degradation)
13 | CN1CCC[C@@H]1c1cc2cnc(NC(=O)c3ccc(N4CCC(OC5CCN(c6ccc7c(c6)CN(C6CCC(=O)NC6=O)C7=O)CC5)CC4)nc3)cc2[nH]1 (stereo partly drawn) [Example 139, 6-(4-((1-(2-(2,6-dioxopiperidin-3-yl)-1-oxoisoindolin-5-yl)piperidin-4-yl)oxy)piperidin-1-yl)-N-(2-((R)-1-methylpyrrolidin-2-yl)-1H-pyrrolo[3,2-c]pyridin-6-yl)nicotinamide] | B (Category B: 50% ≤ B < 75% degradation) | B (Category B: 50% ≤ B < 75% degradation) | B (Category B: 50% ≤ B < 75% degradation)
14 | CN1CCC[C@@H]1c1cc2cnc(NC(=O)c3ccc(N4CCC(OCC5CCN(c6cccc7c6CN(C6CCC(=O)NC6=O)C7=O)CC5)CC4)cc3)cc2[nH]1 (stereo partly drawn) [Example 146, 4-(4-((1-(2-(2,6-dioxopiperidin-3-yl)-1-oxoisoindolin-4-yl)piperidin-4-yl)methoxy)piperidin-1-yl)-N-(2-((R)-1-methylpyrrolidin-2-yl)-1H-pyrrolo[3,2-c]pyridin-6-yl)benzamide] | B (Category B: 50% ≤ B < 75% degradation) | B (Category B: 50% ≤ B < 75% degradation) | B (Category B: 50% ≤ B < 75% degradation)
